What is called MIC is the lowest concentration that inhibits growth of the organism. A high value points to weaker potency. As a reminder, the LC50 is the concentration lethal to half of the exposed cells or organisms.

The test system of data set [1] is Staphylococcus aureus. The data set is described as follows: Antibacterial activity against Staphylococcus aureus NCTC 6751 at 50 ug/disk. The following applies: read-out: IZ. In kind it is functional.
For data set [2], the system named is Staphylococcus aureus. The data set is described as follows: Antibacterial activity against Staphylococcus aureus NCTC 6751. In kind it is functional.
Data set [3] deals with Bacillus subtilis. Briefly: Antibacterial activity against Bacillus subtilis NCTC 8326 at 50 ug/disk. In kind it is functional. The following applies: read-out: IZ.
Data set [4] concerns Bacillus subtilis. Briefly: Antibacterial activity against Bacillus subtilis NCTC 8326. In kind it is functional.
For data set [5], the system named is Escherichia coli. Briefly: Antibacterial activity against Escherichia coli NCTC 9001 at 50 ug/disk. The following applies: read-out: IZ. In kind it is functional.
Data set [6] deals with Escherichia coli. The data set is described as follows: Antibacterial activity against Escherichia coli NCTC 9001. In kind it is functional.
Data set [7] deals with Pseudomonas aeruginosa. Briefly: Antibacterial activity against Pseudomonas aeruginosa NCTC 6750 at 50 ug/disk. In kind it is functional. The following applies: read-out: IZ.
Data set [8] concerns Pseudomonas aeruginosa. Briefly: Antibacterial activity against Pseudomonas aeruginosa NCTC 6750. In kind it is functional.
Data set [9] in a line: Toxicity against brine shrimp. In kind it is organism-based. The following applies: artemia, in vivo.

Molecules are shown by their SMILES. ≈ marks a conversion by molar mass, not a printed value.

For the compound `CCCCCCCCCCCCCCCC1CC(=O)NCCCN(C)CCCCN(C)CCCN1` (configuration not stated), the zone of inhibition at 50 µg/disc was 12 mm in data set [1], 11 mm in data set [3], 10 mm in [5] and 10 mm in [7]. The MIC was 15 µg/mL (≈ 30.3 µM) in data set [2], 20 µg/mL (≈ 40.4 µM) in [4], 27 µg/mL (≈ 54.6 µM) in [6] and 32 µg/mL (≈ 64.7 µM) in [8]. For the same compound, the LC50 in [9] was 16.5 µg/mL (≈ 33.3 µM).

Take `CCCCCCCCCCCCCCCC1CC(=O)NCCCNCCCCN(C)CCCN1C` (configuration not stated): the zone of inhibition at 50 µg/disc in data set [1] was 11 mm; in data set [3], 10 mm; in data set [5], 9 mm; in data set [7], 10 mm. The compound further returned an LC50 in data set [9] of 18.2 µg/mL (≈ 36.8 µM).

With `CCCCCCCCCCCCCCCC1CC(=O)NCCCN(C)CCCCNCCCN1C` (configuration not stated), the zone of inhibition at 50 µg/disc in data set [1] stood at 11 mm; in [3], 10 mm; in [5], 9 mm; in data set [7], 9 mm. In data set [9], this compound displayed an LC50 of 15.9 µg/mL (≈ 32.1 µM).

Consider `CCCCCCCC(O)CCCCCC1CC(=O)NCCCN(C)CCCCN(C)CCCN1C` (configuration not stated), for which the zone of inhibition at 50 µg/disc stood at 8 mm in [1], 8 mm in [3], 7 mm in data set [5] and 7 mm in [7]. Moreover, the MIC in [2] was 35 µg/mL (≈ 70.4 µM); in data set [4], 45 µg/mL (≈ 90.6 µM); in data set [6], 72 µg/mL (≈ 145 µM); in data set [8] it was 84 µg/mL (≈ 169 µM). The compound further displayed an LC50 in data set [9] of 79.7 µg/mL (≈ 160 µM).

On to `CCCCCCCCCC(O)CCCCCC1CC(=O)NCCCN(C)CCCCN(C)CCCN1` (configuration not stated), for which the zone of inhibition at 50 µg/disc in [1] was found to be 9 mm; in data set [3] it was 9 mm; in data set [5] it was 7 mm; in data set [7] it was 7 mm. For the same compound, the LC50 in [9] amounted to 60.4 µg/mL (≈ 118 µM).

Consider `CCCCCCCCCC(O)CCCCCC1CC(=O)NCCCN(C)CCCCN(C)CCCN1C` (configuration not stated), for which the zone of inhibition at 50 µg/disc in data set [1] amounted to 9 mm; in data set [3], 8 mm; in data set [5] it was 7 mm; in [7], 8 mm. Further, the MIC was found to be 30 µg/mL (≈ 57.2 µM) in data set [2], 42 µg/mL (≈ 80 µM) in [4], 64 µg/mL (≈ 122 µM) in data set [6] and 75 µg/mL (≈ 143 µM) in [8]. The compound further displayed an LC50 in data set [9] of 69.1 µg/mL (≈ 132 µM).

Regarding `CCCCCCCCCCCC1CC(=O)NCCCN(C)CCCCN(C)CCCN1C` (configuration not stated) [BUDMUNCHIAMINE A], the zone of inhibition at 50 µg/disc in [1] amounted to 10 mm; in [3] it was 11 mm; in data set [5], 11 mm; in data set [7], 10 mm. Further, the MIC in data set [2] amounted to 18 µg/mL (≈ 39.8 µM); in [4] it was 15 µg/mL (≈ 33.1 µM); in data set [6] it was 25 µg/mL (≈ 55.2 µM); in data set [8], 30 µg/mL (≈ 66.3 µM). Also, the LC50 in [9] came to 4 µg/mL (≈ 8.83 µM).

On to `CCCCCCCCCCCCCC1CC(=O)NCCCN(C)CCCCN(C)CCCN1` (configuration not stated) [BUDMUNCHIAMINE G], for which the zone of inhibition at 50 µg/disc is 10 mm in data set [1], 12 mm in data set [3], 10 mm in data set [5] and 9 mm in data set [7]. Further, the MIC in [2] was determined as 18 µg/mL (≈ 38.6 µM); in data set [4], 24 µg/mL (≈ 51.4 µM); in data set [6], 30 µg/mL (≈ 64.3 µM); in data set [8], 35 µg/mL (≈ 75 µM). Besides, in data set [9], the LC50 is 12.3 µg/mL (≈ 26.3 µM).

On to `CCCCCCCCCCCCCCCC1CC(=O)NCCCN(C)CCCCN(C)CCCN1C` (configuration not stated) [BUDMUNCHIAMINE K], for which the zone of inhibition at 50 µg/disc in [1] stood at 11 mm; in [3], 10 mm; in data set [5], 11 mm; in data set [7] it was 11 mm. Moreover, the MIC in data set [2] is 15 µg/mL (≈ 29.5 µM); in data set [4], 19 µg/mL (≈ 37.3 µM); in data set [6] it was 24 µg/mL (≈ 47.2 µM); in [8], 28 µg/mL (≈ 55 µM). In addition, the LC50 in data set [9] turned out to be 6.6 µg/mL (≈ 13 µM).

As for `O=C(N[C@H](CO)[C@H](O)c1ccc([N+](=O)[O-])cc1)C(Cl)Cl` [CHLORAMPHENICOL], the zone of inhibition at 50 µg/disc in [1] came to 24 mm; in data set [3] it was 31 mm; in [5], 26 mm; in [7] it was 17 mm. Moreover, the minimum inhibitory concentration (MIC) amounted to 7 µg/mL (≈ 21.7 µM) in data set [2], 7 µg/mL (≈ 21.7 µM) in data set [4], 12 µg/mL (≈ 37.1 µM) in data set [6] and 26 µg/mL (≈ 80.5 µM) in [8].

Values taken from ChEMBL document CHEMBL1158278, “New macrocyclic spermine (budmunchiamine) alkaloids from Albizia gummifera: with some observations on the structure--activity relationships of the budmunchiamines” (J Nat Prod, 1996).
